Data on 2 compounds can be found in paper PMC4723341, “Ribonuclease H/DNA Polymerase HIV-1 Reverse Transcriptase Dual Inhibitor: Mechanistic Studies on the Allosteric Mode of Action of Isatin-Based Compound RMNC6” (PLoS ONE, 2016).

The target of experiment [1] is T1, HIV-1 RT-associated RNase H activity, K103N RT (Human immunodeficiency virus type 1 group M subtype B, UniProt P04585, K690N).
T1 construct: The 1:1 ration between the p66/p51 subunits was also verified; made in house; host or cells: E. coli M15
The experiment in a line: RNase H activity assay, K103N RT. The class given is biochemical, HIV-1 group M subtype B. The method, then: (§1) HIV RT-associated RNase H activity was measured as described in 100 μL reaction volume containing 50 mM Tris-HCl buffer pH 7.8, 6 mM MgCl2, 1 mM dithiothreitol (DTT), 80 mM KCl, 0.25 μM hybrid RNA/DNA 5'-GAUCUGAGCCUGGGAGCU-Fluorescin-3' (HPLC, dry, QC: Mass Check) (available from Metabion) 5'-Dabcyl-AGCTCCCAGGCTCAGATC-3'(HPLC, dry, QC: Mass Check), increasing concentrations of inhibitors, whose dilution were made in water, and different amount of enzymes according to a linear range of dose-response curve: 20 ng of WT RT; 60 ng K103N RT; 37.5 ng V106A RT; 75 ng V108A RT; 5 ng Y181C RT; 50 ng Y188A RT; 30 ng Y188L RT; 100 ng E224A RT; 37.5 ng P225A RT; 20 ng P226A RT; 18 ng F227A RT; 30 ng L228A RT; 30 ng W229A RT; 10 ng M230A RT; 30 ng G231A RT; 62.5 ng N474A RT; 1 μg Y501A RT; 100 ng A502F RT; 37.5 ng A508V RT; 38 ng HIV-1 group O RT. The reaction mixture was incubated for 1 h at 37°C, stopped by addition of EDTA and products were measured with a multilabel counter plate reader Victor 3 (Perkin Elmer model 1420–051) equipped with filters for 490/528 nm (excitation/emission wavelength)

The target of experiment [2] is HIV-1 RT-associated RNase H activity, HIV-1 group O RT (Human immunodeficiency virus type 1 group O, UniProt Q79666). The experiment in a line: RNase H activity assay, HIV-1 group O RT. It is filed as biochemical. Conditions: for IC50: Group O RT; for Fold increase in RNase H IC50 in comparison with wild-type HIV-1 group M subtype B RT: HIV-1 group O RT.
Description: Recombinant HIV-1 group O RT was expressed and purified as previously described. It was obtained as a heterodimer composed of subunits of 66 and 51 kDa, with a polyhistidine tag at the C-terminus of p66. For this purpose, the RT p66 subunit encoded within a p66RTB expression vector was co-expressed with the HIV-1 protease in E. coli XL-1 Blue, and the obtained heterodimers were then purified by ionic exchange followed by chromatography on Ni2+-nitriloacetic acid agarose. The enzyme was quantified by active site titration before biochemical studies.
as §1, with “5'-[…]-Fluorescin-3'” for “5'-GAUCUGAGCCUGGGAGCU-Fluorescin-3'”, “5'-Dabcyl-[…]-3'(HPLC,” for “5'-Dabcyl-AGCTCCCAGGCTCAGATC-3'(HPLC,”

The target in experiment [3] is T2, HIV-1 RT-associated RNase H activity, P226A RT (Human immunodeficiency virus type 1 group M subtype B, UniProt P04585, P813A).
T2 construct: The 1:1 ration between the p66/p51 subunits was also verified; made in house; host or cells: E. coli M15
The experiment in a line: RNase H activity assay, P226A RT. The class given is biochemical, HIV-1 group M subtype B. The method, then:
as §1

For experiment [4], the system named is HIV-1 RT-associated RNase H activity, P226A RT. The experiment in a line: RNase H activity assay, P226A RT. It is filed as biochemical, HIV-1 group M subtype B. The settings on record: P226A RT. The method, then: as §1
Experiment [5] has as its target T3, HIV-1 RT-associated RNase H activity, A502F RT (Human immunodeficiency virus type 1 group M subtype B, UniProt P04585, A1089F).
T3 construct: The 1:1 ration between the p66/p51 subunits was also verified; made in house; host or cells: E. coli M15
The experiment in a line: RNase H activity assay, A502F RT. It is filed as biochemical, HIV-1 group M subtype B. The settings on record: for Fold of increase of RNase H IC50 with respect to wt RT: A502F RT. The method, then: as §1

Experiment [6] relates to HIV-1 RT-associated RNase H activity, G231A RT. The experiment can be described thus: RNase H activity assay, G231A RT. The class given is biochemical, HIV-1 group M subtype B. The settings on record: G231A RT. The method, then:
as §1

In experiment [7] the target is T4, HIV-1 RT-associated RNase H activity, G231A RT (Human immunodeficiency virus type 1 group M subtype B, UniProt P04585, G818A).
T4 construct: The 1:1 ration between the p66/p51 subunits was also verified; made in house; host or cells: E. coli M15
The experiment can be described thus: RNase H activity assay, G231A RT. The class given is biochemical, HIV-1 group M subtype B. The method, then: as §1

The target in experiment [8] is T5, HIV-1 RT-associated RNase H activity, F227A RT (Human immunodeficiency virus type 1 group M subtype B, UniProt P04585, F814A).
T5 construct: The 1:1 ration between the p66/p51 subunits was also verified; made in house; host or cells: E. coli M15
The experiment in a line: RNase H activity assay, F227A RT. It is filed as biochemical, HIV-1 group M subtype B. The method, then: as §1

Experiment [9] deals with HIV-1 RT-associated RNase H activity, F227A RT. The experiment can be described thus: RNase H activity assay, F227A RT. It is filed as biochemical, HIV-1 group M subtype B. The settings on record: F227A RT. The method, then: as §1
Experiment [10] addresses T6, HIV-1 RT-associated RNase H activity, V108A RT (Human immunodeficiency virus type 1 group M subtype B, UniProt P04585, V695A).
T6 construct: The 1:1 ration between the p66/p51 subunits was also verified; made in house; host or cells: E. coli M15
The experiment can be described thus: RNase H activity assay, V108A RT. The class given is biochemical, HIV-1 group M subtype B. The method, then:
as §1

Experiment [11] concerns the target T7, HIV-1 RT-associated RNase H activity, M230A RT (Human immunodeficiency virus type 1 group M subtype B, UniProt P04585, M817A).
T7 construct: The 1:1 ration between the p66/p51 subunits was also verified; made in house; host or cells: E. coli M15
The experiment can be described thus: RNase H activity assay, M230A RT. It is filed as biochemical, HIV-1 group M subtype B. The method, then:
as §1

Experiment [12] deals with HIV-1 RT-associated RNase H activity, M230A RT. The experiment can be described thus: RNase H activity assay, M230A RT. It is filed as biochemical, HIV-1 group M subtype B. Conditions: M230A RT. The method, then: as §1
Experiment [13] deals with T8, HIV-1 RT-associated RNase H activity, Y188A RT (Human immunodeficiency virus type 1 group M subtype B, UniProt P04585, Y775A).
T8 construct: The 1:1 ration between the p66/p51 subunits was also verified; made in house; host or cells: E. coli M15
The experiment can be described thus: RNase H activity assay, Y188A RT. The class given is biochemical, HIV-1 group M subtype B. Conditions: for Fold of increase of RNase H IC50 with respect to wt RT: Y188A RT. The method, then:
as §1

“And” between values parts separate entries of the source, which are not always exact repeats. Equal entries are not always repeated. Where two headings read alike, the source gives them in different places.

Take `CC(C)c1ccc(O)c(=O)c(O)c1` [BTP, β-thujaplicinol, reference compound]: the IC50 in experiment [1] (K103N RT, read-out: IC50 RNase H) came to 220 ± 80 nM; in experiment [2], 0.91 ± 0.01 µM; in experiment [3], 290 ± 80 nM; in experiment [5] it was 0.17 ± 0.03 µM; in experiment [7], 250 ± 30 nM; in [8] it was 220 ± 40 nM. The IC50 in experiment [10] came to 0.18 ± 0.04 µM; in experiment [11], 140 ± 40 nM; in [13], 190 ± 80 nM. The “Fold increase in RNase H IC50 in comparison with wild-type HIV-1 group M subtype B RT” value in experiment [2] is 5 to 6.5. In addition, the “Fold of increase of RNase H IC50 with respect to wt RT” value came out at 1.5 in experiment [4]; 0.9 in [5]; 1.3 in [6]; 1.2 in experiment [9]; 0.7 in [12]; 1.0 in [13].
For the compound `N#Cc1ccc(-c2csc(NN=C3C(=O)Nc4ccccc43)n2)cc1` [RMNC6, (Z)-4-(2-(2-(2-oxoindolin-3-ylidene)hydrazinyl)thiazol-4-yl)benzonitrile], the IC50 in experiment [1] is 2300 ± 100 nM; in experiment [2] it was 8.5 ± 2.6 µM; in experiment [3], 1900 ± 100 nM; in experiment [5], 13 ± 0.7 µM; in experiment [7], 1700 ± 400 nM; in [8] it was 700 ± 100 nM. Moreover, the IC50 in [10] amounted to 13.1 ± 2.5 µM; in [11] it was 500 ± 100 nM; in experiment [13], 3300 ± 1500 nM. Moreover, the “Fold increase in RNase H IC50 in comparison with wild-type HIV-1 group M subtype B RT” value in experiment [2] is 6.5 and 5 to 6.5. Further, the “Fold of increase of RNase H IC50 with respect to wt RT” value is given as 1.5 in [4]; 10.0 in [5]; 1.3 in [6]; 0.5 in experiment [9]; 0.4 in experiment [12]; 2.5 in experiment [13].
